Test results taken from patent EP4692094A1 (Beijing Konruns Pharmaceutical Co., Ltd., priority 2023, dated 2024).

Legend:
[1] = Assay for plasma protein binding rate (equilibrium dialysis), human plasma; format: in vitro ADME; conditions: dialysis 6 h at 37 °C, read-out: Human (Fu%)
Method: (§1) 1.1 Preparation of compounds: The compounds prepared in the examples were each dissolved in dimethylsulfoxide to give solutions at a concentration of 10 mmol/L. • 1) The example compounds were each diluted from 10 mmol/L stock solution to 0.2 mmol/L, i.e., 1 µL of the compound was added to 49 µL of DMSO; • 2) 3 µL of 0.2 mmol/L test compounds were added to 597 µL of blood plasma, and the mixtures were vortexed at 1000 rpm for 2 min; • 3) 50 µL of the plasma containing the drug in 2) was taken, 50 µL of PBS was added, and 300 µL of methanol internal standard* was added to serve as a sample T0; • 4) 120 µL of the plasma containing the drug in 2) was taken and added to one side of an HTD device membrane, and 120 µL of PBS was added to the other side of the membrane; a breathable film was covered, and the plasma and the residual sample in 2) were balanced at 37 °C (100 rpm and 5% CO2) for 6 h; • 5) 50 µL of the dialyzed plasma side sample was taken, 50 µL of PBS was added, and 300 µL of methanol internal standard* was added to serve as a sample P; • 6) 50 µL of the dialyzed PBS side sample was taken, 50 µL of blank plasma was added, and 300 µL of methanol internal standard* was added to serve as a sample B; • 7) 50 µL of the plasma containing the drug in 2) was taken, 50 µL of PBS was added, and 300 µL of methanol internal standard* was added to serve as a sample T6; • 8) All samples were vortexed, mixed homogeneously, and then centrifuged at 3220 g for 40 min at 4 °C; • 9) 100 µL of the supernatant and 100 µL of purified water were mixed homogenously for liquid chromatography-mass spectrometry.
(§2) An internal standard method was used, and the plasma protein binding rate, recovery rate, and residual percentage were calculated by using Excel according to the ratio of the peak area of the sample to the peak area of the internal standard. Free rate(%) = (RatioB)/(RatioP) × 100% [formula] Binding rate(%) = 100%−Free rate% [formula] Recovery rate(%) = (RatioB + RatioP)/(RatioT0) × 100% [formula] Remaining percentage(%) = (RatioT6)/(RatioT0) × 100% [formula]
(§3) RatioB: a ratio of the peak area of the test substance on the PBS side to the peak area of the internal standard; RatioP: a ratio of the peak area of the test substance on the plasma side to the peak area of the internal standard; RatioT6: a ratio of the peak area of the sample after incubation with the test substance for 6 h to the peak area of the internal standard; RatioT0: a ratio of the peak area of the sample after incubation with the test substance for 0 h to the peak area of the internal standard. Table 8. Plasma protein binding rate (Fu%) data for various species of example compounds

[2] = target: T1, KAT6A (Homo sapiens, UniProt Q92794); assay: Enzymatic activity assay for KAT6A acetyltransferase (TR-FRET, acetylation of histone substrate H3); format: biochemical
T1 construct: purchased active motife (Active Motif) 81223
Method: The acetylation effect of KAT6A on histone substrate H3 was determined using the TR-FRET (time-resolved fluorescence resonance energy transfer) method.
• 1) The compounds prepared in the examples of the present disclosure were each dissolved in dimethylsulfoxide to give solutions at a concentration of 10 mmol/L, and then the solutions were diluted to 0.2 mmol/L, i.e., 1 µL of the compound was added to 49 µL of DMSO, and 3-fold dilution was performed to give 10 concentrations. • 2) 50 nL of the test compounds (example compounds) were transferred to 384 reaction plates using Echo, two replicates for each compound, and the plates were centrifuged at a rotation speed of 1000 rpm for 1 min, the final concentration of dimethylsulfoxide (DMSO) being 0.5%. • 3) 2.5 µL of the reaction mixtures obtained in step 2 was added to the 384 reaction plates in step 2), and the plates were centrifuged at 1000 rpm for 1 min and incubated at 25 °C for 10 min. • 4) 2.5 µL of Bio-H3&AcCOA (acetyl-CoA) reaction solution was added to the 384 reaction plates in step 3), and the plates were centrifuged at a rotation speed of 1000 rpm for 1 min and incubated at 25 °C for 90 min. • 5) 5 µL of Eu-Ab& Ulight-SA detection solution was added to the 384 reaction plates in step 4), and the plates were centrifuged at 1000 rpm for 1 min and incubated at 25 °C for 60 min. • 6) The HTRF […] signals were read using a BMG high-throughput drug-screening multi-mode microplate reader.
The acetylation level of the histone H3 was analyzed by the GraphPad Prism 8 software. The reading of the negative control (0.5% DMSO wells) was set as 0% inhibition rate, and the reading of the positive control (wells with the highest concentration of the control compound) was set as 100% inhibition rate. The inhibition rates were calculated, and then IC50 values (half maximal inhibitory concentration) of test compounds were obtained by using a software nonlinear fitting formula; [formula]
Datapositive control: mean of positive control well values; Datanegative control: mean of negative control well values. Table 3. Enzymatic inhibitory activity of example compounds

[3] = Assay for plasma protein binding rate (equilibrium dialysis), mouse plasma; format: in vitro ADME; conditions: dialysis 6 h at 37 °C, read-out: Mouse (Fu%)
Method: as §1, §2, §3

[4] = tested on: human breast cancer cell line ZR-75-1; assay: Assay for cell growth inhibitory activity (3D hydrogel culture, CCK-8); format: cell-based; conditions: 96 h; for viability at 0.0001 µM: ZR-75-1, 0.1 nM, read-out: Cell survival rate at example drug concentration 0.1 nM; for viability at 0.001 µM: ZR-75-1, 1 nM, read-out: Cell survival rate at example drug concentration 1 nM; for viability at 0.01 µM: ZR-75-1, 10 nM, read-out: Cell survival rate at example drug concentration 10 nM; for viability at 0.1 µM: ZR-75-1, 100 nM, read-out: Cell survival rate at example drug concentration 100 nM; for viability at 1 µM: ZR-75-1, 1000 nM, read-out: Cell survival rate at example drug concentration 1000 nM
Method: The human breast cancer cell line ZR-75-1 (1 × 10^^6 cells per cell culture dish with 100-mm diameter) was cultured in a 1640 culture medium, and 1% double antibiotics (streptomycin and penicillin), 10% fetal bovine serum (FBS), and 1% glutamine (Glumax) were added simultaneously. The cell culture dish was placed at 37 °C with 5% CO2 for 2 days for culture until the cell confluence reached 80%-90% to give cells in the logarithmic growth phase.
• 1) The example compounds were each dissolved in dimethylsulfoxide to give solutions at a concentration of 10 mmol/L, and the solutions were diluted to 250 µmol/L in 10-fold gradient for 5 concentrations, i.e., 0.2 nmol/L, 2 nmol/L, 20 nmol/L, 200 nmol/L, and 2000 nmol/L. • 2) Blank control wells were prepared by adding 0.1% dimethylsulfoxide to the cultured cells, and were used as high-reading control wells; cell-free 3D hydrogel was used as background wells. • 3) The cultured cells were separately added to the compounds in the examples at 0.2 nmol/L, 2 nmol/L, 20 nmol/L, 200 nmol/L, and 2000 nmol/L as test wells, with the same volumes as the original culture solutions.
• 1) The cells were collected, resuspended in a PBS balanced salt solution, and counted; and the cells were mixed with the 3D hydrogel stock solution and prepared into hydrogel cell suspensions with proper density. • 2) The 3D hydrogel cell suspension (5 × 10^^4 cells) was added to each well in 96-well cell culture plates with low surface adsorption, and the plates were incubated at 37 °C with 5% CO2 for 20 min. • 3) The complete culture medium containing the compound prepared in 1.2 with an equal volume to that of the cell suspension in step 2 was added to the 96-well cell culture plate. • 4) The cells were cultured at 37 °C in a 5% CO2 incubator for 96 h.
• 1) The complete culture medium in the upper layer above the hydrogel was pipetted from each well of the 96-well cell culture plate with a vacuum pump or a manual pipette with careful processing to avoid breaking the hydrogel lower layer. • 2) The complete culture medium containing the CCK-8 substrate with an equal volume to that of the original hydrogel was added to each well. • 3) The plate was cultured at 37 °C with 5% CO2 for 1 h. • 4) The 96-well cell culture plate was placed in a microplate reader, and the values of A450 and A630 were separately detected.
Data analysis: The relative inhibitory level was analyzed by using Excel software, and the survival rates of cells under different compound culture conditions were obtained; [formula]
High-reading control well: cells + dimethylsulfoxide; background well: cell-free hydrogel. Table 7. Cell proliferation inhibitory activity of some of example compounds

[5] = In-vivo pharmacokinetic study in rats; parameters: species or system SD female rats; conditions: female, SD, rat, plasma, po, 5 mg/kg, intragastric administration; for AUC(0-t): read-out: AUC0-24h
Method: 1.1 Instrument: high-performance liquid chromatograph: SHIMADZU LC-30AD; mass spectrum: AB SCIEX mass spectrometer Triple Quad 5500; all measured data were calculated and processed using Microsoft Excel, and relevant pharmacokinetic parameters were calculated using WinNonlin software. The main obtained kinetic parameters are Tmax, T1/2, Cmax, AUC0-24 h, and AUCinf. […] Sample injection amount: 1 µL.
1.2 Animals: three SD female rats were used. The body weight range was 180-300 g. After purchase, the rats were bred in the experimental animal center for two days for later use. The rats were fasted 12 h before administration and 4 h after administration, and given ad libitum access to water during the assay. Blood samples were taken at predetermined time points after intragastric administration.
1.3 Vehicle: 0.5% HPMC (hydroxypropyl methylcellulose) + 0.4% Tween80 + 99.1% water. Preparation of intragastric administration solution: The compound was precisely weighed, the vehicle was added, and then the drug was completely dissolved by ultrasonication at room temperature for 5 min and prepared into a 0.5 mg/mL solution. After the intragastric administration, blood samples were taken at 0.083 h, 0.25 h, 0.5 h, 1.0 h, 2.0 h, 4.0 h, 7.0 h, and 24 h. The blood collection mode is as follows: 0.2 mL of the jugular vein blood was collected, EDTA-K2 was used as an anticoagulation agent, the collected blood sample was transferred into a microcentrifuge tube containing the anticoagulation agent, and the tube was centrifuged at 4 °C and 4000 g for 5 min to separate the plasma. All plasma samples collected were stored at -75±15 °C until analysis.
The compound was precisely weighed and prepared into a standard curve working solution and a quality control working solution at different concentrations. The blank plasma was added and prepared into a plasma standard curve and a quality control sample. LC/MS/MS analysis was performed after pretreatment using a protein precipitation method, and then the concentration of the compounds described above in the plasma was measured. All measured data were collected and processed by the relevant software, and pharmacokinetic parameters were calculated using Winnonlin software. Table 9. Pharmacokinetic parameters of some compounds in the examples in rats

T1 sequence (Q92794 whole entry): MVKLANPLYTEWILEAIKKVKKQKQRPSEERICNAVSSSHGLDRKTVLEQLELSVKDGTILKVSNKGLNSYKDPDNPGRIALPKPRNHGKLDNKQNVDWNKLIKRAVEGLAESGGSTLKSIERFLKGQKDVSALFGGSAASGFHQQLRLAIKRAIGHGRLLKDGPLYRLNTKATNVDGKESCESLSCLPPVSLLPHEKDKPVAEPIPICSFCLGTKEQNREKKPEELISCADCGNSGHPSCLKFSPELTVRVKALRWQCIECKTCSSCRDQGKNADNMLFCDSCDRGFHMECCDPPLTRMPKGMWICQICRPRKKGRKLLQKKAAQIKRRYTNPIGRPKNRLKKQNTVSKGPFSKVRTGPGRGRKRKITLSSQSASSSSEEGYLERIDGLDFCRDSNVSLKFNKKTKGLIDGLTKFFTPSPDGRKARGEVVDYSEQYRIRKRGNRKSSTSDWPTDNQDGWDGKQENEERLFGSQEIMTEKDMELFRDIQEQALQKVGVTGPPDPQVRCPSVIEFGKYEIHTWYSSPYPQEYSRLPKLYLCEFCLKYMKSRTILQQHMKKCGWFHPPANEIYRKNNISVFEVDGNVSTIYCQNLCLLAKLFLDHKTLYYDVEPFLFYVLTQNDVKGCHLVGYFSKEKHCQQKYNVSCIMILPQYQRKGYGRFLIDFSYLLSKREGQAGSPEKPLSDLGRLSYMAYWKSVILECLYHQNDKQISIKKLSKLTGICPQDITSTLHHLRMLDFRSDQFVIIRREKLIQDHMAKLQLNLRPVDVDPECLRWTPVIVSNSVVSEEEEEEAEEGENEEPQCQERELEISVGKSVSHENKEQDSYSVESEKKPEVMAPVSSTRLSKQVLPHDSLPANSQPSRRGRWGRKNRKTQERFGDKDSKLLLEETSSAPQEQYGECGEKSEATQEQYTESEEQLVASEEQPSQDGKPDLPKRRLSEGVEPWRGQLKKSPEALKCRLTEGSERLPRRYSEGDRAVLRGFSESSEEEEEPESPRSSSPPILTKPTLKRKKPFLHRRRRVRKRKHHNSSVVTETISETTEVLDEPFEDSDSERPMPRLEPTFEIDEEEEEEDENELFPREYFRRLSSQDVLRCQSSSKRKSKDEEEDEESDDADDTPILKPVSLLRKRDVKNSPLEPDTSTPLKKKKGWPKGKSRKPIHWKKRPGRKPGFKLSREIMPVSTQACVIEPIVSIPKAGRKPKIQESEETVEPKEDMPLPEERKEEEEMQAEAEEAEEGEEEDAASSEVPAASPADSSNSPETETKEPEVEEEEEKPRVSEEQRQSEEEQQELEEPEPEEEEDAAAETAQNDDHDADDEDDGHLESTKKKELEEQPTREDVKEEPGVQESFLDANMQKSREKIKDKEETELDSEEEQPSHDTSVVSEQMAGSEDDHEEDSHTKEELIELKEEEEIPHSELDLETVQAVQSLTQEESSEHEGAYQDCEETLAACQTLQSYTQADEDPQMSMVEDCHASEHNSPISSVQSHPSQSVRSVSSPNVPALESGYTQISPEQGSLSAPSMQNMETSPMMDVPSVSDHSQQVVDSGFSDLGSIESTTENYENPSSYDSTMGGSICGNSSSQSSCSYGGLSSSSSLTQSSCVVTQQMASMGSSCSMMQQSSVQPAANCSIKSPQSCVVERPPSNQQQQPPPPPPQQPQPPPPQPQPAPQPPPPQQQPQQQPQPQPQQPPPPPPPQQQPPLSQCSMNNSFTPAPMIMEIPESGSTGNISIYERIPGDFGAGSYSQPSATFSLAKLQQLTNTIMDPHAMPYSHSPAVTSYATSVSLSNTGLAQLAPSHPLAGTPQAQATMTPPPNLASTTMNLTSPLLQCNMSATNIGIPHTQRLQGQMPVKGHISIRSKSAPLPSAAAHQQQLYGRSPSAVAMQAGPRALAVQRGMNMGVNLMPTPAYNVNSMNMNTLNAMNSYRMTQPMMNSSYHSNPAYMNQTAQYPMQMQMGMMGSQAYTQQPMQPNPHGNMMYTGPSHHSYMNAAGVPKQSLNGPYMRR

| IC50 [2] [nM] | half-life [5] [h] | AUC(0-inf) [5] [µg·h/mL] | Cmax [5] [ng/mL] | Tmax [5] [h] | AUC(0-t) [5] [µg·h/mL] | Compound | fraction unbound at 6 h, 1 µM [1] | fraction unbound at 6 h, 1 µM [3] | viability at 0.0001 µM [4] [%] | viability at 0.001 µM [4] [%] | viability at 0.01 µM [4] [%] | viability at 0.1 µM [4] [%] | viability at 1 µM [4] [%] |
| --- | --- | --- | --- | --- | --- | --- | --- | --- | --- | --- | --- | --- | --- |
| 3.11 | 24.6 | 1300 | 31600 | 0.33 | 502 | COc1nc(Cn2cccn2)cc2onc(NS(=O)(=O)c3cccc4c3ccn4C)c12 [Example 6, N-(6-((1H-Pyrazol-1-yl)methyl)-4-methoxyisoxazolo[4,5-c]pyridin-3-yl)-1-methyl-1H-indole-4-sulfonamide] |  |  | 74 | 66 | 45 | 38 | 25 |
| 0.84 | ≤ 10 | 450 | 25600 | 1.17 | 356 | COc1cc2c(c(OC)c1S(=O)(=O)Nc1noc3cc(Cn4cccn4)nc(OC)c13)CCC2 [Example 62, N-(6-((1H-Pyrazol-1-yl)methyl)-4-methoxyisoxazolo[4,5-c]pyridin-3-yl)-4,6-dimethoxy-2,3-dihydro-1H-indene-5-sulfonamide] |  |  |  |  |  |  |  |
| 0.77 |  | 32 | 3310 | 0.83 | 32 | COc1ccc2cccnc2c1S(=O)(=O)Nc1noc2cc(Cn3cccn3)nc(OC)c12 [Example 11, N-(6-((1H-Pyrazol-1-yl)methyl)-4-methoxyisoxazolo[4,5-c]pyridin-3-yl)-7-methoxyquinoline-8-sulfonamide] |  |  |  |  |  |  |  |
| 7.33 |  |  |  |  |  | COc1nc(Cn2cccn2)cc2onc(NS(=O)(=O)c3cccc4c3OCC4)c12 [Example 1, N-(6-((1H-pyrazol-1-yl)methyl)-4-methoxyisoxazolo[4,5-c]pyridin-3-yl)-2,3-dihydrobenzofuran-7-sulfonamide] |  |  | 95 | 80 | 54 | 40 | 30 |

| Compound | IC50 [2] [nM] | half-life [5] [h] | AUC(0-inf) [5] [µg·h/mL] | Cmax [5] [ng/mL] | Tmax [5] [h] | AUC(0-t) [5] [µg·h/mL] | fraction unbound at 6 h, 1 µM [1] | fraction unbound at 6 h, 1 µM [3] | viability at 0.0001 µM [4] [%] | viability at 0.001 µM [4] [%] | viability at 0.01 µM [4] [%] | viability at 0.1 µM [4] [%] | viability at 1 µM [4] [%] |
| --- | --- | --- | --- | --- | --- | --- | --- | --- | --- | --- | --- | --- | --- |
| COc1ccc2occc2c1S(=O)(=O)Nc1noc2cc(Cn3cccn3)nc(OC)c12 [Example 45, N-(6-((1H-Pyrazol-1-yl)methyl)-4-methoxyisoxazolo[4,5-c]pyridin-3-yl)-5-methoxybenzofuran-4-sulfonamide] | 9.45 |  |  |  |  |  | 0.0066 | 0.0145 |  |  |  |  |  |
| COc1nc(Cn2cccn2)cc2onc(NS(=O)(=O)c3cccc4c3OCO4)c12 [Example 28, N-(6-((1H-Pyrazol-1-yl)methyl)-4-methoxyisoxazolo[4,5-c]pyridin-3-yl)-1,3-benzodioxole-4-sulfonamide] | 3.55 |  |  |  |  |  | 0.0086 | 0.0205 |  |  |  |  |  |
| COc1ccc2c(c1S(=O)(=O)Nc1noc3cc(Cn4cccn4)nc(OC)c13)CCCC2 [Example 3] | 1.76 |  |  |  |  |  |  |  | 71 | 55 | 43 | 40 | 29 |
